Measured values published in paper PMC12399242 (Acta Pharmaceutica Sinica. B, 2025).
Entries after “also recorded” stand apart in the source; their conditions may differ.

What was measured:
CYP3A4-T = target: T1, CYP3A4-T (Homo sapiens, UniProt P08684); experiment: CYP enzyme inhibition assay, CYP3A4-T; type: in vitro ADME; details: human liver microsomes
T1 construct: An incubation system of human liver microsomes (20 μL, 1.5 mg/mL); from tissue; host or cells: human liver microsomes
Procedure: (§1) An incubation system of human liver microsomes (20 μL, 1.5 mg/mL), 20 μL probe substrates, and 50 μL test compound in Tris (0.1 mol/L) was pre-incubated at 37 °C for 10 min, and then initiated by adding NADPH (10 μL, 10 mmol/L). The system was incubated for another 15 min and subsequently terminated by 100 μL MeCN containing internal standard (propranolol, nadolol). Finally, the sample was centrifugated to obtain the supernatant for LC‒MS/MS analysis.

HIV-1 F227L + V106A = experiment: microbe, parasite or virus in culture; type: cell-based; details: Human immunodeficiency virus 1, MT4, read-out: EC50 F227L + V106A
[1] = Plasma protein binding assay (equilibrium dialysis); type: in vitro ADME; details: rat plasma, dialysis 37 °C, read-out: plasma protein binding rate (%PPB) (converted)
Procedure: The DMSO solution of A12 was diluted to 100 μmol/L with MeOH:H2O (1:1) and then added to the pre-loaded plasma to obtain plasma samples with a test concentration of 1 μmol/L. Subsequently, 100 μL of control dialysis buffer (phosphate buffer + 0.002% Tween-80) and 100 μL of A12 plasma sample were transferred to the receiver and the donor side of dialysis chambers, respectively, two copies of each sample. The dialysis system was incubated in a shaker (37 °C, 6 h). Upon completion, 20 μL of samples were removed from each of the buffer and plasma chambers. After adding aliquots control plasma, PBS (0.002% Tween-80) respectively, 250 μL methanol solution with internal standard was added into each sample. The solution was mixed and centrifuged (3800 rpm, 10 min) to obtain the supernatant for LC‒MS/MS analysis.

HIV-1 Y188L = experiment: Antiviral activity against HIV-1 mutant Y188L in MT-4 cells; type: cell-based; details: Human immunodeficiency virus 1, MT4, read-out: EC50 Y188L
CYP2D6 = target: T2, CYP2D6 (Homo sapiens, UniProt P10635); experiment: CYP enzyme inhibition assay, CYP2D6; type: in vitro ADME; details: human liver microsomes; read-out: IC50 CYP2D6
T2 construct: An incubation system of human liver microsomes (20 μL, 1.5 mg/mL); from tissue; host or cells: human liver microsomes
T2 sequence (P10635 whole entry): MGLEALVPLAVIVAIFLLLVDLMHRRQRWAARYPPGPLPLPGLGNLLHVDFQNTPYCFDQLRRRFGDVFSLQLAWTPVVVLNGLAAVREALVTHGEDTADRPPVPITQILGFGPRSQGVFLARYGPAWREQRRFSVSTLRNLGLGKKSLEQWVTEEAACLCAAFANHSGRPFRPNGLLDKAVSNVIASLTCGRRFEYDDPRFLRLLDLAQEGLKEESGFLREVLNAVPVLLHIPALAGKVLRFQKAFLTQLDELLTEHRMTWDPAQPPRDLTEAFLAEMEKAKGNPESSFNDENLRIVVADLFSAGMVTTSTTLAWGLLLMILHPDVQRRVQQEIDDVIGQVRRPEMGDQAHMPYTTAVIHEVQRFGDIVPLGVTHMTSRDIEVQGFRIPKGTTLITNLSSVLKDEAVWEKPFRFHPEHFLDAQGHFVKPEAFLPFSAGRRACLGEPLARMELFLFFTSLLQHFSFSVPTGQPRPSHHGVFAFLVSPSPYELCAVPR
Procedure: as §1

CYP2C9 = target: T3, CYP2C9 (Homo sapiens, UniProt P11712); experiment: CYP enzyme inhibition assay, CYP2C9; type: in vitro ADME; details: human liver microsomes
T3 construct: An incubation system of human liver microsomes (20 μL, 1.5 mg/mL); from tissue; host or cells: human liver microsomes
T3 sequence (P11712 whole entry): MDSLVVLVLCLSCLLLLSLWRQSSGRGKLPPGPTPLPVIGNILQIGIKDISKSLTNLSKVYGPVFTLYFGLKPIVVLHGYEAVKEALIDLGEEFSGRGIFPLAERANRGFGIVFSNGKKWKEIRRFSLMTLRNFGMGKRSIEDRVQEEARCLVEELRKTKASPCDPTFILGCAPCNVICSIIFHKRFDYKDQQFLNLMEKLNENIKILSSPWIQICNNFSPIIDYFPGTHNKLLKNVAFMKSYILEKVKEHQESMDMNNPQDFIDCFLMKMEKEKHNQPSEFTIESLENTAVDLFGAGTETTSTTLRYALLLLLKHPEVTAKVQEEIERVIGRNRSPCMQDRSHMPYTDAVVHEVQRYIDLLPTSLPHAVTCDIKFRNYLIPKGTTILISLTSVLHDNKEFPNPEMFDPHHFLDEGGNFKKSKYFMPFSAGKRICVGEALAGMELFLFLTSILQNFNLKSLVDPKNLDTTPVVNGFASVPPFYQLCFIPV
Procedure: (§2) An incubation system of human liver microsomes (20 μL, 1.5 mg/mL), 20 μL probe substrates, and 50 μL test compound in Tris (0.1 mol/L) was pre-incubated at 37 °C for 10 min, and then initiated by adding NADPH (10 μL, 10 mmol/L). […] Finally, the sample was centrifugated to obtain the supernatant for LC‒MS/MS analysis.

WT HIV-1 RT = WT HIV-1 RT (Human immunodeficiency virus type 1 group M subtype B, UniProt P03366); experiment: Inhibition of WT HIV-1 RT polymerase activity
Procedure: The anti-HIV-1 activity of A1–A24 and B1–B22 at the cellular or enzyme level were evaluated following our previously reported method[15].

HIV-1 E138K = experiment: Antiviral activity against HIV-1 mutant E138K in MT-4 cells; type: cell-based; details: Human immunodeficiency virus 1, MT4, read-out: EC50 E138K
HIV-1 L100I = experiment: Antiviral activity against HIV-1 mutant L100I in MT-4 cells; type: cell-based; details: Human immunodeficiency virus 1, MT4, read-out: EC50 L100I
CYP1A2 = target: T4, CYP1A2 (Homo sapiens, UniProt P05177); experiment: CYP enzyme inhibition assay, CYP1A2; type: in vitro ADME; details: human liver microsomes
T4 construct: An incubation system of human liver microsomes (20 μL, 1.5 mg/mL); from tissue; host or cells: human liver microsomes
T4 sequence (P05177 whole entry): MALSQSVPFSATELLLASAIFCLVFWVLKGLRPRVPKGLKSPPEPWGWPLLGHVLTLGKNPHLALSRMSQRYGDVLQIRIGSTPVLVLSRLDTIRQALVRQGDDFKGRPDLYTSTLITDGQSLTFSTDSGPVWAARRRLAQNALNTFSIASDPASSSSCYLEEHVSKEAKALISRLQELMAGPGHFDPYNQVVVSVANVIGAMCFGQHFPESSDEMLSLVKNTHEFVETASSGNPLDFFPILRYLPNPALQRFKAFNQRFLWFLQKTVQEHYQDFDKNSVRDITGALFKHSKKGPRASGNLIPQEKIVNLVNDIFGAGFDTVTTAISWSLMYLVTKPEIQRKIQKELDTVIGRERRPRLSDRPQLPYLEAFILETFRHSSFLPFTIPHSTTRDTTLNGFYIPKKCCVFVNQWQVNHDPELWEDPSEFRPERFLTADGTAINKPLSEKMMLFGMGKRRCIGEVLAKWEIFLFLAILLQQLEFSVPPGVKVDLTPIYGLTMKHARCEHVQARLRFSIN
Procedure: as §2

HIV-1 Y181C = experiment: Antiviral activity against HIV-1 mutant Y181C in MT-4 cells; type: cell-based
[2] = system: HIV-1 K103N + Y181C (RES056); experiment: Antiviral activity against HIV-1 double mutant K103N + Y181C (RES056) in MT-4 cells; type: cell-based; details: Human immunodeficiency virus 1, MT4, read-out: EC50 K103N + Y181C
[3] = system: six CYP isoenzymes (not named; range over all six); experiment: CYP inhibition, six isoenzymes (summary range); type: in vitro ADME; details: human, human liver microsomes
Procedure: as §1

hERG channel = target: T5, hERG channel (Homo sapiens, UniProt Q12809); experiment: hERG inhibition assay (QPatch, CHO-hERG cells); type: cell-based; details: automated QPatch, n = 3
T5 construct: expressed in transfected cells; host or cells: CHO-hERG cells
T5 sequence (Q12809 whole entry): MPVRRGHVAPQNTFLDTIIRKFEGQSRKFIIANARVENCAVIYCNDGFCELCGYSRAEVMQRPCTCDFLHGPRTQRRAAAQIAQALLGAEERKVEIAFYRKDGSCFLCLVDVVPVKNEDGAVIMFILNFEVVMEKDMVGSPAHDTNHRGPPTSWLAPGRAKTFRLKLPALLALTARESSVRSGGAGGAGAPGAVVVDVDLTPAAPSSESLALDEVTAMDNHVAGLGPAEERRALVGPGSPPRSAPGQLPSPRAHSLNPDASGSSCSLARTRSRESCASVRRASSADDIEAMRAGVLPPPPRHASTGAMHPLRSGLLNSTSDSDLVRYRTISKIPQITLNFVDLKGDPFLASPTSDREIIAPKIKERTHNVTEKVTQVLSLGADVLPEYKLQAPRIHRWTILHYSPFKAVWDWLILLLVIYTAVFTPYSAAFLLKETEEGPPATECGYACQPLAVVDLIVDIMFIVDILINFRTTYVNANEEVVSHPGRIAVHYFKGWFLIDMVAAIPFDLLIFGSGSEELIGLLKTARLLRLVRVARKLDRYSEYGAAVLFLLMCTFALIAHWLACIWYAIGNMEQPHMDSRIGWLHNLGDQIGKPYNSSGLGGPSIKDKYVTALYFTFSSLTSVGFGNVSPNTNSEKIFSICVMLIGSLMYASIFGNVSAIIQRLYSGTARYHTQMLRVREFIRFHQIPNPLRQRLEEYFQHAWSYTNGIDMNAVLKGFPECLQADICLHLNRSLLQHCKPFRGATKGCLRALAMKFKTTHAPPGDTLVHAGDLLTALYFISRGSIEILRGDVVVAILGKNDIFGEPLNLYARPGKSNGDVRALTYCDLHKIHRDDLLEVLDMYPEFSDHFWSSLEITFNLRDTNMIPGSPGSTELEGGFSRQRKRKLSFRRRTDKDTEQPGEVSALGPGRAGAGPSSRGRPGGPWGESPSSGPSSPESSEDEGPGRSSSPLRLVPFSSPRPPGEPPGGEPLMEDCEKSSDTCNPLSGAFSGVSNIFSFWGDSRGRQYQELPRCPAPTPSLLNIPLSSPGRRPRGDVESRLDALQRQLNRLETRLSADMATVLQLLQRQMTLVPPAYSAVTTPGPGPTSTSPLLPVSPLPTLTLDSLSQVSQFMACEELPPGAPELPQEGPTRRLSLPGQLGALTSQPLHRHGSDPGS
Procedure: CHO-hERG cells were cultured under the condition of 37 °C and 5% CO2. The culture medium was removed when the cell density grew to 60%–80%. Then, the cells were washed (PBS, 7 mL) and digested. After completion, culture medium (7 mL) was added for neutralization and then centrifuged to obtain the cells, which were subsequently resuspended into 5 mL of culture medium for automated Qpatch assays. The electrophysiology process was recorded using the QPatch instrument. The cells were clamped at an equilibrium potential of −80 mV. Voltage stimulation was conducted every 15 s, which concludes a 5 s, +40 mV depolarizing pulse and a 5 s, −50 mV repolarizing pulse. After 2 min of recording, extracellular fluid was given and recorded for 5 min. […] Each concentration was evaluated on 3 cells (n = 3).

[4] = Human liver microsomal stability assay; type: in vitro ADME
Procedure: A mixed system of human liver microsomes (0.5 mg/mL), MgCl2 (3 mmol/L), tested compound (1.0 μmol/L), and NADPH (1.0 mmol/L) in PBS (0.1 mol/L) was incubated at 37 °C. After 0, 5, 15, 30, 45, and 60 min, aliquots were sampled respectively and then terminated by adding methanol containing internal standard. After centrifugation using a Thermo Scientific Fresco 17 microcentrifuge (4 °C, 3800 rpm, 15 min), the supernatant was removed for LC‒MS/MS analysis.

ICR mice = experiment: Acute toxicity assay in ICR mice; type: in vivo
Procedure: A12 was suspended in PEG400/normal saline (80/20, v/v) to achieve a concentration of 100 mg/ml. Sixteen ICR mice (eight male/eight female, 18–22 g) were assigned into 4 groups randomly, and each group contained 4 male mice or 4 female mice (n = 4). […] Over the next two weeks, the mortality, body weight, and abnormal behaviors of these mice were monitored daily. All mice were dissected after blood collection on Day 14, and several vital organs were removed and then assessed for pathological damage by HE staining. The collected blood was submitted for blood biochemistry testing.

CYP3A4-M = CYP3A4-M (Homo sapiens, UniProt P08684); experiment: CYP enzyme inhibition assay, CYP3A4-M; type: in vitro ADME; design: An incubation system of human liver microsomes (20 μL, 1.5 mg/mL); from tissue; host or cells: human liver microsomes; details: human liver microsomes
CYP3A4-M, sequence (P08684 whole entry): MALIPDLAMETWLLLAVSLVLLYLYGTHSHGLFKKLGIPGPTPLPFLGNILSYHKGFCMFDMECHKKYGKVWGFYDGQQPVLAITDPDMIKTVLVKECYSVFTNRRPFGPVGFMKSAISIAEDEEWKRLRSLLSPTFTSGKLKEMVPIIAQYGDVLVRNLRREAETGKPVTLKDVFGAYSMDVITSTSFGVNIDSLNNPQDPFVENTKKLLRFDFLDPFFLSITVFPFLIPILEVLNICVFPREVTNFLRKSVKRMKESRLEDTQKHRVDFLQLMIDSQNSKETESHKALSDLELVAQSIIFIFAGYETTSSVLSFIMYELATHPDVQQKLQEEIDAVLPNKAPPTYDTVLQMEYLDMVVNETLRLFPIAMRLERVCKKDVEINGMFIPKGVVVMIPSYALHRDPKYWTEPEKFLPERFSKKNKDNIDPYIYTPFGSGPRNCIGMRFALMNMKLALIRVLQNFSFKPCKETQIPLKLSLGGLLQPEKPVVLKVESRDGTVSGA
Procedure: as §2

HIV-1 K103N = experiment: Antiviral activity against HIV-1 mutant K103N in MT-4 cells; type: cell-based; details: Human immunodeficiency virus 1, MT4, read-out: EC50 K103N

T1 sequence (P08684 whole entry): as above

Cc1cc(-c2ccc(C#N)cc2)cc(C)c1Nc1nc(Nc2ccc(C#N)cc2)ncc1F [A12, 4′-((2-((4-Cyanophenyl)amino)-5-fluoropyrimidin-4-yl)amino)-3′,5′-dimethyl-[1,1′-biphenyl]-4-carbonitrile]
IC50 (CYP3A4-T): > 25000 nM | EC50 (HIV-1 F227L + V106A): 157 ± 64 nM | fraction unbound at 6 h, 1 μmol/L [1]: 0.005 | EC50 (HIV-1 Y188L): 60 ± 9.2 nM | IC50 (CYP2D6): 14500 nM | IC50 (CYP2C9): 6990 nM | IC50 (WT HIV-1 RT): 41 ± 6.9 nM | EC50 (HIV-1 E138K): 6 ± 0.5 nM | EC50 (HIV-1 L100I): 3 ± 0.5 nM | IC50 (CYP1A2): > 25000 nM | EC50 (HIV-1 Y181C; Human immunodeficiency virus 1, MT4, read-out: EC50 Y181C): 7.1 ± 1.2 nM | fold higher efficacy against Y181C than toward RES056 (HIV-1 Y181C; ratio of EC50 values): 6.2 fold | EC50 [2]: 44 ± 18 nM | IC50 at 15 min [3]: 6990 to 25000 nM | IC50 (hERG channel): > 40000 nM | half-life at 1 μmol/L ([4]; human liver microsomes 0.5 mg/mL, 1.0 μmol/L compound): 24.3 min | CLint scaled at 1 μmol/L ([4]; human liver microsomes, scaled to liver): 51.3 mL/min/kg | microsomal CLint at 1 μmol/L ([4]; human, microsomes): 57 µL/min/mg | HE staining of vital organs (brain, heart, liver, spleen, lung, kidney) (ICR mice; 2 g/kg i.g., Day 14): does not show any discernible pathological alteration in vital organs; also recorded: no notable pathological alterations were detected in the vital organs | blood biochemical parameters (ALT, AST, CREA, UREA, CKMB) (ICR mice; 2 g/kg i.g., fourteen days after administration, vs control): no significant differences in blood biochemical parameters | mortality (ICR mice; male and female, single dose 2 g/kg i.g., 14 days): No instances of mortality were recorded | acute toxicity, overall (ICR mice; single dose 2 g/kg): excellent tolerance at doses reaching 2 g/kg, without any manifestation of immediate toxicity | abnormal behavior (ICR mice; single dose 2 g/kg i.g., 14 days): no noteworthy deviations in behavior were detected | body weight growth (ICR mice; single dose 2 g/kg i.g., vs control group): growth patterns similar to that shown by the control group | IC50 (CYP3A4-M): > 25000 nM | EC50 (HIV-1 K103N): 1.7 ± 0.5 nM
